Source: patent publication US10801054B2 (priority 2013, dated 2020)
Where “and” joins values, the source holds several entries; their conditions need not be identical. Equal entries are not always repeated.

Test system: Phage litmus

Structure (SMILES) | Color change of Phage litmus bands upon exposure | Red-green-blue (RGB) color differences G3 | Red-green-blue (RGB) color differences R1 | Red-green-blue (RGB) color differences R3 | Time in which all color matrices of the Phage litmus responded [s] | Red-green-blue (RGB) color differences G1 | Red-green-blue (RGB) color differences R4
CCO [EtOH, ethanol] | immediately changed color | 3.32 and 2.87 and 2.98 | 1.22 and 1.81 and 1.06 | 2.54 and 1.97 and 2.26 | 30 | – | –
CCOCC [Ether, diethyl ether] | immediately changed color | – | 1.31 and 1.20 and 1.24 | 1.15 and 1.53 and 0.91 | 30 | 0.38 and 0.56 and 0.39 | 1.30 and 1.54 and 1.12
CCCCCC [Hexane, n-hexane] | immediately changed color | – | – | 0.69 and 0.99 and 0.53 | 30 | – | –
